Data published in patent publication US20250213574A1, “THERAPEUTIC COMBINATIONS COMPRISING UBIQUITIN- SPECIFIC-PROCESSING PROTEASE 1 (USP1) INHIBITORS AND CHEMOTHERAPY AGENTS” (KSQ Therapeutics, Inc., priority 2022, published 2025).
Where “and” joins values, the source holds several entries; their conditions need not be identical. Identical values can stand only once. Like-named read-outs stand apart in the source and are kept apart here.

What was measured:
Format in all cases: cell-based
ASPC1 = experiment: Colony formation (CFU) assay, ASPC1; details: ASPC1, pancreas
Description: (§1) In vitro experiments were conducted using the colony formation unit (CFU) assay on various cell lines. The CFU assay involved first establishing what cell plating density enabled the development of clearly interspersed colonies on a six-well plate when left to grow for around 14 days. […] At or around day 14 when clearly interspersed colonies were visible in the DMSO-treated wells, the cells were fixed and stained using 0.1% crystal violet in 10% ethanol for 20 minutes at room temperature. The plates were imaged then the amount of crystal violet stain in each well was quantified by extracting the crystal violet into 10% acetic acid and the absorbance measured at 565 nm.
(§2) For certain cell lines, multiple IC50 values were taken, and those are separated by commas. Synergy scores are in parentheticals.

CAPAN2 = experiment: Colony formation (CFU) assay, CAPAN2; details: CAPAN2, pancreas, CFU ~14 days, wells with DMSO or 300 nM Compound 1, read-out: Chemotherapy nM IC50s
Description: as §1, §2

COV362 = experiment: Colony formation (CFU) assay, COV362; details: COV362, 336 h, read-out: Chemotherapy nM IC50s
Description: as §1, §2

GSU = experiment: Colony formation (CFU) assay, GSU; details: stomach, chemotherapy agent in combination with 300 nM Compound 1
Description: as §1, §2

HCT15 = experiment: Colony formation (CFU) assay, HCT15; details: Homo sapiens, HCT-15, 336 h; HCT15, colon; CFU ~14 days; wells with DMSO or 300 nM Compound 1; read-out: Chemotherapy nM IC50s
Description: as §1, §2

HPAC = experiment: Colony formation (CFU) assay, HPAC; details: Homo sapiens, 336 h, pancreas, CFU ~14 days, wells with DMSO or 300 nM Compound 1, read-out: Chemotherapy nM IC50s
Description: as §1, §2

OVSAHO = experiment: Colony formation (CFU) assay, OVSAHO; details: Homo sapiens, 336 h, ovary, CFU ~14 days, wells with DMSO or 300 nM Compound 1, read-out: Chemotherapy nM IC50s
Description: as §1, §2

SW948 = experiment: Colony formation (CFU) assay, SW948; details: SW948, colon; for IC50: CFU ~14 days, wells with DMSO or 300 nM Compound 1, read-out: Chemotherapy nM IC50s
Description: as §1, §2

UWB1289 = experiment: Colony formation (CFU) assay, UWB1289; details: 336 h; UWB1289, ovary; CFU ~14 days; wells with DMSO or 300 nM Compound 1; read-out: Chemotherapy nM IC50s
Description: as §1, §2

various cell lines = experiment: Colony formation (CFU) assay, summary over cell lines of Table 1; details: combination of USP1 inhibitor (Compound 1, 300 nM) and the chemotherapy agent
Description: as §1
In certain cell lines, combinations of the disclosure are synergistic. In some aspects, these combinations are determined to have a Bliss score is about 6, about 7, about 8, about 9, about 10, about 11, about 12, about 13, about 14, about 15, about 16, about 17, about 18, about 19, about 20 or about 25.

647V = experiment: Colony formation (CFU) assay, 647V; details: bladder, CFU ~14 days, wells with DMSO or 300 nM Compound 1, read-out: Chemotherapy nM IC50s
Description: as §1, §2

ACCMESO1 = experiment: Colony formation (CFU) assay, ACCMESO1; details: ACCMESO1, pleura, CFU ~14 days, wells with DMSO or 300 nM Compound 1, read-out: Chemotherapy nM IC50s
Description: as §1, §2

HCC1806 = experiment: Colony formation (CFU) assay, HCC1806; details: HCC1806, breast; CFU ~14 days; wells with DMSO or 300 nM Compound 1; read-out: Chemotherapy nM IC50s (converted)
Description: as §1, §2

HCT116 = experiment: Colony formation (CFU) assay, HCT116; details: HCT116, colon; CFU ~14 days; wells with DMSO or 300 nM Compound 1; read-out: Chemotherapy nM IC50s
Description: as §1, §2

KALS1 = experiment: Colony formation (CFU) assay, KALS1; details: KALS1, nervous system; CFU ~14 days; wells with DMSO or 300 nM Compound 1; read-out: Chemotherapy nM IC50s
Description: as §1, §2

KU1919 = experiment: Colony formation (CFU) assay, KU1919; details: KU1919, bladder; CFU ~14 days; wells with DMSO or 300 nM Compound 1; read-out: Chemotherapy nM IC50s
Description: as §1, §2

KYSE270 = experiment: Colony formation (CFU) assay, KYSE270; details: KYSE270, esophagus; CFU ~14 days; wells with DMSO or 300 nM Compound 1; read-out: Chemotherapy nM IC50s
Description: as §1, §2

KYSE70 = experiment: Colony formation (CFU) assay, KYSE70; details: KYSE70, esophagus; CFU ~14 days; wells with DMSO or 300 nM Compound 1; read-out: Chemotherapy nM IC50s
Description: as §1, §2

MDAMB231 = experiment: Colony formation (CFU) assay, MDAMB231; details: MDAMB231, breast; CFU ~14 days; wells with DMSO or 300 nM Compound 1; read-out: Chemotherapy nM IC50s
Description: as §1, §2

NCIH596 = experiment: Colony formation (CFU) assay, NCIH596; details: NCIH596, lung; CFU ~14 days; wells with DMSO or 300 nM Compound 1; read-out: Chemotherapy nM IC50s
Description: as §1, §2

SUM149PT = experiment: Colony formation (CFU) assay, SUM149PT; details: breast, CFU ~14 days, wells with DMSO or 300 nM Compound 1, read-out: Chemotherapy nM IC50s
Description: as §1, §2

UMUC3 = experiment: Colony formation (CFU) assay, UMUC3; details: UMUC3, bladder; CFU ~14 days; wells with DMSO or 300 nM Compound 1; read-out: Chemotherapy nM IC50s
Description: as §1, §2

A549 = experiment: Colony formation (CFU) assay, A549; details: Homo sapiens, 336 h; A549, lung; CFU ~14 days; wells with DMSO or 300 nM Compound 1; read-out: Chemotherapy nM IC50s
Description: as §1, §2

MERO14 = experiment: Colony formation (CFU) assay, MERO14; details: 336 h, CFU ~14 days, wells with DMSO or 300 nM Compound 1, read-out: Chemotherapy nM IC50s
Description: as §1, §2

MERO83 = experiment: Colony formation (CFU) assay, MERO83; details: 336 h, CFU ~14 days, wells with DMSO or 300 nM Compound 1, read-out: Chemotherapy nM IC50s
Description: as §1, §2

MSTO211H = experiment: Colony formation (CFU) assay, MSTO211H; details: pleura, CFU ~14 days, wells with DMSO or 300 nM Compound 1, read-out: Chemotherapy nM IC50s
Description: as §1, §2

NCIH1915 = experiment: Colony formation (CFU) assay, NCIH1915; details: NCI-H1915, 336 h; NCIH1915, lung; CFU ~14 days; wells with DMSO or 300 nM Compound 1; read-out: Chemotherapy nM IC50s
Description: as §1, §2

NCIH2452 = experiment: Colony formation (CFU) assay, NCIH2452; details: Homo sapiens, NCI-H2452, 336 h; NCIH2452, pleura; CFU ~14 days; wells with DMSO or 300 nM Compound 1; read-out: Chemotherapy nM IC50s
Description: as §1, §2

[1] = chemotherapy agent in combination with 300 nM Compound 1

## CC[C@@]1(O)C(=O)OCc2c1cc1n(c2=O)Cc2cc3ccccc3nc2-1 [Campto., camptothecin]
ASPC1; [1]
  synergy score: −5
ASPC1; Homo sapiens, 336 h, CFU ~14 days, wells with DMSO or 300 nM Compound 1, read-out: Chemotherapy nM IC50s
  IC50: 3 nM
CAPAN2
  IC50: 11 nM
CAPAN2; Homo sapiens, Capan-2, 336 h
  IC50: 8 nM
COV362
  IC50: 274 nM
GSU
  synergy score: 13
HCT15
  IC50: 5 nM
HPAC
  IC50: 5 nM
OVSAHO
  IC50: 177 nM
SW948; Homo sapiens, SW948, 336 h
  IC50: 10 nM
SW948
  IC50: 6 nM
SW948; [1]
  synergy score: (−3)
UWB1289
  IC50: 18 nM
Various cell lines
  synergy of combination with USP1 inhibitor: synergy was detected

## CO[C@@]12[C@H](COC(N)=O)C3=C(C(=O)C(C)=C(N)C3=O)N1C[C@@H]1N[C@@H]12 [Mito. C, mitomycin C]
647V
  IC50: 15 nM
ACCMESO1
  IC50: 10 nM and 13 nM
HCC1806
  IC50: 1 nM and 2 nM and < 1 nM
HCT116
  IC50: 19 nM
KALS1
  IC50: 632 nM
KU1919
  IC50: 16 nM
KYSE270
  IC50: 15 nM and 11 nM
KYSE70
  IC50: 14 nM and 12 nM
MDAMB231
  IC50: 14 nM
NCIH596
  IC50: 10 nM
SUM149PT
  IC50: 5 nM
UMUC3
  IC50: 18 nM and 12 nM

## Nc1nc2[nH]cc(CCc3ccc(C(=O)N[C@@H](CCC(=O)O)C(=O)O)cc3)c2c(=O)[nH]1 [Pemetrex, pemetrexed]
A549
  IC50: 6870 nM
ACCMESO1; ACC-MESO-1, 336 h
  IC50: 172 nM
MERO14
  IC50: > 3000 nM
MERO83
  IC50: > 3000 nM
MSTO211H; Homo sapiens, MSTO-211H, 336 h
  IC50: 41 nM
MSTO211H
  IC50: 50 nM
NCIH1915
  IC50: 185 nM
NCIH2452
  IC50: 48 nM
